# Assay results: ChEMBL document CHEMBL3259747, “Small chemicals with inhibitory effects on PtdIns(3,4,5)P3 binding of Btk PH domain” (Bioorg Med Chem Lett, 2014)
# Target: T1, Tyrosine-protein kinase BTK (Homo sapiens, UniProt Q06187)
# Test: Inhibition of PtdIns(3,4,5)P3 binding to Btk PH domain (unknown origin) expressed in Escherichia coli BL21(DE3) RIL cells at 100 uM by surface plasmon resonance assay relative to untreated control
# T1 sequence (Q06187 whole entry, the tested form may be a part): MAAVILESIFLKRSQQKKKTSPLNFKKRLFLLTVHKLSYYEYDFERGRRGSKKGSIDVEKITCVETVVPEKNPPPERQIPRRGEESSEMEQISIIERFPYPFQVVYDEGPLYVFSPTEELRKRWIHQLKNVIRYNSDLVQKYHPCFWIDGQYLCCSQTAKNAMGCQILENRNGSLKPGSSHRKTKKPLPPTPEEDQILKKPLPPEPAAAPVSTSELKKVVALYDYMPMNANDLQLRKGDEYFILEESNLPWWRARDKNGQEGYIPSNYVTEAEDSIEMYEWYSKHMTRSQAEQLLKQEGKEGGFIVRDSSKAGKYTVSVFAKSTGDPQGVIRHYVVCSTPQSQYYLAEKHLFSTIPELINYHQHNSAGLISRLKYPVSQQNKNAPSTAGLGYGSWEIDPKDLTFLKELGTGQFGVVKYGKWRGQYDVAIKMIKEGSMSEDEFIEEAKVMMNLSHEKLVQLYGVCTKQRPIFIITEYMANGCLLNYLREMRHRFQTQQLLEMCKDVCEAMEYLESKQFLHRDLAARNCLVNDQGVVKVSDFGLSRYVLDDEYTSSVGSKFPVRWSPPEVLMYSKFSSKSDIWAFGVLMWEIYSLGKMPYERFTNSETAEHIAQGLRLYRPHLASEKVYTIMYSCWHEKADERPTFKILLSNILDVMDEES
row,Compound,inhibition [%]
1,CC1(C(=O)O)CC([PH](=O)O)=NN1 (stereo not drawn),71
2,COP(=O)(O)C1=NNC(C)(C(=O)O)C1 (stereo not drawn),52
3,COP(=O)(O)c1cc(C(=O)O)[nH]n1,48
4,CCOP(=O)(O)C1=NNC(C)(C(=O)O)C1 (stereo not drawn),41
5,O=C(O)c1cc(P(=O)(O)O)n[nH]1,95
6,CCOP(=O)(O)c1n[nH]c(C(=O)O)c1C(=O)O,34
7,CCOP(=O)(O)c1cc(C(=O)O)[nH]n1,37

# Continued, values first:
row,inhibition [%],Compound
1,11,O=C1[C@@H]2C[C@@H]3O[C@]2(C(O)C3OP(=O)(O)O)[C@@H](P(=O)(O)O)N1Cc1ccccc1 (stereo partly drawn)
2,38,O=C1[C@@H]2C[C@H]3CC[C@@]2(O3)[C@@H](P(=O)(O)O)N1Cc1ccccc1
3,13,O=C1[C@@H]2C[C@@H]3O[C@]2(C(O)C3O)[C@@H](P(=O)(O)O)N1Cc1ccccc1 (stereo partly drawn)
4,64,CC1(C(=O)O)NN=C(P(=O)(O)O)C1C(=O)O (stereo not drawn)

# Target: T2, Epsin-1 (Homo sapiens, UniProt Q9Y6I3)
# T2 sequence (Q9Y6I3 whole entry): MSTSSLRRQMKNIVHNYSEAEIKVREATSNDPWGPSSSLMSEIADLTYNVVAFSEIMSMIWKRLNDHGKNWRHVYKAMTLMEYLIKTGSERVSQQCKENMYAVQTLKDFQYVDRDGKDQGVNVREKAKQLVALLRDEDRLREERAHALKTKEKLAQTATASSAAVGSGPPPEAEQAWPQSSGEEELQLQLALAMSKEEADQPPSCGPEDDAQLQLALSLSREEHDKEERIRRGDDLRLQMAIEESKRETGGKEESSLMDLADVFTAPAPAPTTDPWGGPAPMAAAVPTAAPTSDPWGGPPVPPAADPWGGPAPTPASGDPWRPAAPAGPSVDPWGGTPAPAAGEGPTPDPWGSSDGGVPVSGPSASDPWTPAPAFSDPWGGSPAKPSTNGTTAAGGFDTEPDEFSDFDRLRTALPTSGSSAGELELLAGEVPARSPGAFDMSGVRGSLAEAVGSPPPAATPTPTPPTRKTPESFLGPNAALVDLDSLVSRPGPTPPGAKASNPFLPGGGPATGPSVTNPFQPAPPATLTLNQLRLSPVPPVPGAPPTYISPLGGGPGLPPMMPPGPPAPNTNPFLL
# Test: Inhibition of PtdIns(4,5)P2 binding to Epsin1 ENTH domain (unknown origin)
row,Compound,IC50 [µM]
1,O=C(O)c1cc(P(=O)(O)O)n[nH]1,46

# Target: T1, Tyrosine-protein kinase BTK
# Test: Inhibition of PtdIns(3,4,5)P3 binding to Btk PH domain (unknown origin) expressed in Escherichia coli BL21(DE3) RIL cells by surface plasmon resonance assay relative to untreated control
row,Compound,IC50 [µM]
1,O=C(O)c1cc(P(=O)(O)O)n[nH]1,17
